Results from patent US7183415B2, “Quinoline compound” (Takeda Pharmaceutical Company Limited, priority 2001, dated 2007).

A melting point of 150 to 151 °C was found for `Cc1ccccc1-c1ccc(C(=O)Nc2ccc3cc(CN4CCCC4)cnc3c2C)cc1` [Example 111, 2′-methyl-N-[8-methyl-3-(1-pyrrolidinylmethyl)-7-quinolinyl][1,1′-biphenyl]-4-carboxamide] in this work.
A melting point of 158 to 159 °C was found for `Cc1c(NC(=O)c2ccc(-c3cccc(F)c3)cc2)ccc2cc(CN3CCCC3)cnc12` [Example 112, 3′-fluoro-N-[8-methyl-3-(1-pyrrolidinylmethyl)-7-quinolinyl][1,1′-biphenyl]-4-carboxamide] in this work.
A melting point of 176 to 177 °C was found for `Cc1c(NC(=O)c2ccc(-c3ccc4c(c3)CCO4)cc2)ccc2cc(CN3CCCC3)cnc12` [Example 113, 4-(2,3-dihydro-1-benzofuran-5-yl)-N-[8-methyl-3-(1-pyrrolidinylmethyl)-7-quinolinyl]benzamide] in this work.
A melting point of 195 to 197 °C was found for `Cc1c(NC(=O)c2ccc(-c3ccc4c(c3)CCCO4)cc2)ccc2cc(CN3CCCC3)cnc12` [Example 114, 4-(3,4-dihydro-2H-chromen-6-yl)-N-[8-methyl-3-(1-pyrrolidinylmethyl)-7-quinolinyl]benzamide] in this work.
A melting point of 162 to 163 °C was found for `Cc1c(NC(=O)c2ccc(-c3ccc4c(c3)CCCCO4)cc2)ccc2cc(CN3CCCC3)cnc12` [Example 116, N-[8-methyl-3-(1-pyrrolidinylmethyl)-7-quinolinyl]-4-(2,3,4,5-tetrahydro-1-benzoxepin-7-yl)benzamide] in this work.
A melting point of 178 to 179 °C was found for `Cc1c(NC(=O)c2ccc(C3CCCCC3)cc2)ccc2cc(CN3CCCC3)cnc12` [Example 122, 4-cyclohexyl-N-[8-methyl-3-(1-pyrrolidinylmethyl)-7-quinolinyl]benzamide] in this work.
A melting point of 192 to 193 °C was found for `COc1ccc(COc2ccc(C(=O)Nc3ccc4cc(CN5CCCC5)cnc4c3C)cc2)cc1` [Example 126, 4-[(4-methoxybenzyl)oxy]-N-[8-methyl-3-(1-pyrrolidinylmethyl)-7-quinolinyl]benzamide] in this work.
A melting point of 180 to 182 °C was found for `Cc1ccc(-c2ccc(C(=O)Nc3ccc4cc(CN5CCCC5)cnc4c3C)c(F)c2)cc1` [Example 135, 3-fluoro-4′-methyl-N-[8-methyl-3-(1-pyrrolidinylmethyl)-7-quinolinyl][1,1′-biphenyl]-4-carboxamide] in this work.
A melting point of 175 to 178 °C was found for `Cc1c(NC(=O)c2ccc(-c3ccc(OC(F)(F)F)cc3)cc2F)ccc2cc(CN3CCCC3)cnc12` [Example 136, 3-fluoro-N-[8-methyl-3-(1-pyrrolidinylmethyl)-7-quinolinyl]-4′-(trifluoromethoxy)[1,1′-biphenyl]-4-carboxamide] in this work.
A melting point of 172 to 173 °C was found for `Cc1c(NC(=O)c2ccc(-c3ccc(F)cc3F)cc2F)ccc2cc(CN3CCCC3)cnc12` [Example 139, 2′,3,4′-trifluoro-N-[8-methyl-3-(1-pyrrolidinylmethyl)-7-quinolinyl][1,1′-biphenyl]-4-carboxamide] in this work.
A melting point of 178 to 179 °C was found for `CCc1ccc(-c2ccc(C(=O)Nc3ccc4cc(CN5CCCC5)cnc4c3C)c(F)c2)cc1` [Example 140, 4′-ethyl-3-fluoro-N-[8-methyl-3-(1-pyrrolidinylmethyl)-7-quinolinyl][1,1′-biphenyl]-4-carboxamide] in this work.
A melting point of 202 to 203 °C was found for `Cc1c(NC(=O)c2ccc(-c3cc4ccccc4o3)cc2F)ccc2cc(CN3CCCC3)cnc12` [Example 142, 4-(1-benzofuran-2-yl)-2-fluoro-N-[8-methyl-3-(1-pyrrolidinylmethyl)-7-quinolinyl]benzamide] in this work.
A melting point of 189 to 190 °C was found for `CSc1ccc(-c2ccc(C(=O)Nc3ccc4cc(CN5CCCC5)cnc4c3C)c(F)c2)cc1` [Example 144, 3-fluoro-N-[8-methyl-3-(1-pyrrolidinylmethyl)-7-quinolinyl]-4′-(methylsulfanyl)[1,1′-biphenyl]-4-carboxamide] in this work.
A melting point of 176 to 178 °C was found for `Cc1c(NC(=O)c2ccc(-c3ccc(F)cc3)cc2F)ccc2cc(CN3CCCC3)cnc12` [Example 145, 3,4′-difluoro-N-[8-methyl-3-(1-pyrrolidinylmethyl)-7-quinolinyl][1,1′-biphenyl]-4-carboxamide] in this work.
A melting point of 181 to 183 °C was found for `Cc1c(NC(=O)c2ccc(-c3ccc(Cl)cc3)cc2F)ccc2cc(CN3CCCC3)cnc12` [Example 146, 4′-chloro-3-fluoro-N-[8-methyl-3-(1-pyrrolidinylmethyl)-7-quinolinyl][1,1′-biphenyl]-4-carboxamide] in this work.
A melting point of 164 to 166 °C was found for `COc1ccc(-c2ccc(C(=O)Nc3ccc4cc(CN5CCCC5)cnc4c3C)c(F)c2)cc1` [Example 147, 3-fluoro-4′-methoxy-N-[8-methyl-3-(1-pyrrolidinylmethyl)-7-quinolinyl][1,1′-biphenyl]-4-carboxamide] in this work.
A melting point of 159 to 160 °C was found for `Cc1c(NC(=O)c2ccc(-c3ccccc3F)cc2F)ccc2cc(CN3CCCC3)cnc12` [Example 148, 2′,3-difluoro-N-[8-methyl-3-(1-pyrrolidinylmethyl)-7-quinolinyl][1,1′-biphenyl]-4-carboxamide] in this work.
A melting point of 166 to 168 °C was found for `Cc1c(NC(=O)c2ccc(-c3ccccc3)cc2F)ccc2cc(CN3CCCC3)cnc12` [Example 149, 3-fluoro-N-[8-methyl-3-(1-pyrrolidinylmethyl)-7-quinolinyl][1,1′-biphenyl]-4-carboxamide] in this work.
A melting point of 156 to 158 °C was found for `Cc1c(NC(=O)c2ccc(-c3ccccc3)c(F)c2)ccc2cc(CN3CCCC3)cnc12` [Example 151, 2-fluoro-N-[8-methyl-3-(1-pyrrolidinylmethyl)-7-quinolinyl][1,1′-biphenyl]-4-carboxamide] in this work.
A melting point of 174 to 176 °C was found for `COc1ccc(-c2ccc(C(=O)Nc3ccc4cc(CN5CCCC5)cnc4c3C)cc2F)cc1` [Example 152, 2-fluoro-4′-methoxy-N-[8-methyl-3-(1-pyrrolidinylmethyl)-7-quinolinyl][1,1′-biphenyl]-4-carboxamide] in this work.
A melting point of 176 to 178 °C was found for `Cc1c(NC(=O)c2ccc(-c3ccc(F)cc3)c(F)c2)ccc2cc(CN3CCCC3)cnc12` [Example 153, 2,4′-difluoro-N-[8-methyl-3-(1-pyrrolidinylmethyl)-7-quinolinyl][1,1′-biphenyl]-4-carboxamide] in this work.
A melting point of 190 to 192 °C was found for `Cc1c(NC(=O)c2ccc(-c3ccc(Cl)cc3)c(F)c2)ccc2cc(CN3CCCC3)cnc12` [Example 154, 4′-chloro-2-fluoro-N-[8-methyl-3-(1-pyrrolidinylmethyl)-7-quinolinyl][1,1′-biphenyl]-4-carboxamide] in this work.
A melting point of 193 to 194 °C was found for `Cc1ccc(-c2ccc(C(=O)Nc3ccc4cc(CN5CCCC5)cnc4c3C)cc2F)cc1` [Example 155, 2-fluoro-4′-methyl-N-[8-methyl-3-(1-pyrrolidinylmethyl)-7-quinolinyl][1,1′-biphenyl]-4-carboxamide] in this work.
A melting point of 139 to 140 °C was found for `Cc1c(NC(=O)c2ccc(-c3ccccc3F)c(F)c2)ccc2cc(CN3CCCC3)cnc12` [Example 156, 2,2′-difluoro-N-[8-methyl-3-(1-pyrrolidinylmethyl)-7-quinolinyl][1,1′-biphenyl]-4-carboxamide] in this work.
A melting point of 200 to 203 °C was found for `Cc1cc(-c2ccc(F)cc2)ccc1C(=O)Nc1ccc2cc(CN3CCCC3)cnc2c1C` [Example 158, 4′-fluoro-3-methyl-N-[8-methyl-3-(1-pyrrolidinylmethyl)-7-quinolinyl][1,1′-biphenyl]-4-carboxamide] in this work.
A melting point of 200 to 202 °C was found for `Cc1cc(C(=O)Nc2ccc3cc(CN4CCCC4)cnc3c2C)ccc1-c1ccc(F)cc1` [Example 160, 4′-fluoro-2-methyl-N-[8-methyl-3-(1-pyrrolidinylmethyl)-7-quinolinyl][1,1′-biphenyl]-4-carboxamide] in this work.
A melting point of 186 to 187 °C was found for `Cc1c(NC(=O)c2ccc(OCc3ccccc3)cc2)ccc2cc(CN3CCCCC3)cnc12` [Example 161, 4-(benzyloxy)-N-[8-methyl-3-(1-piperidinylmethyl)-7-quinolinyl]benzamide] in this work.
A melting point of 159 to 160 °C was found for `Cc1c(NC(=O)c2ccc(OCc3ccc(F)cc3)cc2)ccc2cc(CN3CCCCC3)cnc12` [Example 162, 4-[(4-fluorobenzyl)oxy]-N-[8-methyl-3-(1-piperidinylmethyl)-7-quinolinyl]benzamide] in this work.
A melting point of 190 to 192 °C was found for `COc1ccc(-c2ccc(C(=O)Nc3ccc4cc(CN5CCCCC5)cnc4c3C)cc2)cc1` [Example 165] in this work.
A melting point of 188 to 190 °C was found for `Cc1c(NC(=O)c2ccc(-c3ccc(F)cc3)cc2)ccc2cc(CN3CCCCC3)cnc12` [Example 166, 4′-fluoro-N-[8-methyl-3-(1-piperidinylmethyl)-7-quinolinyl][1,1′-biphenyl]-4-carboxamide] in this work.
A melting point of 212 to 213 °C was found for `Cc1c(NC(=O)c2ccc(-c3ccc(Cl)s3)cc2)ccc2cc(CN3CCCCC3)cnc12` [Example 167, 4-(5-chloro-2-thienyl)-N-[8-methyl-3-(1-piperidinylmethyl)-7-quinolinyl]benzamide] in this work.
A melting point of 186 to 187 °C was found for `Cc1c(NC(=O)c2ccc(-c3ccc(F)cc3)cc2F)ccc2cc(CN3CCCCC3)cnc12` [Example 170, 3,4′-difluoro-N-[8-methyl-3-(1-piperidinylmethyl)-7-quinolinyl][1,1′-biphenyl]-4-carboxamide] in this work.
A melting point of 191 to 192 °C was found for `COc1ccc(-c2ccc(C(=O)Nc3ccc4cc(CN5CCCCC5)cnc4c3C)c(F)c2)cc1` [Example 171, 3-fluoro-4′-methoxy-N-[8-methyl-3-(1-piperidinylmethyl)-7-quinolinyl][1,1′-biphenyl]-4-carboxamide] in this work.
A melting point of 165 to 167 °C was found for `COc1ccc(-c2ccc(C(=O)Nc3ccc4cc(CN5CCCCCC5)cnc4c3C)cc2)cc1` [Example 179, N-[3-(1-azepanylmethyl)-8-methyl-7-quinolinyl]-4′-methoxy[1,1′-biphenyl]-4-carboxamide] in this work.
A melting point of 166 to 168 °C was found for `Cc1c(NC(=O)c2ccc(-c3ccc(F)cc3)cc2)ccc2cc(CN3CCCCCC3)cnc12` [Example 180, N-[3-(1-azepanylmethyl)-8-methyl-7-quinolinyl]-4′-fluoro[1,1′-biphenyl]-4-carboxamide] in this work.
A melting point of 171 to 172 °C was found for `COc1ccc(-c2ccc(C(=O)Nc3ccc4cc(CN5CCCCCC5)cnc4c3C)c(F)c2)cc1` [Example 185, N-[3-(1-azepanylmethyl)-8-methyl-7-quinolinyl]-3-fluoro-4′-methoxy[1,1′-biphenyl]-4-carboxamide] in this work.
